Reference: patent US11912699B2, “Tau-protein targeting compounds and associated” (Arvinas Operations, Inc., priority 2019, dated 2024)
Structures can show the parent of a compound that is named as a salt.

target: T1, Tau P301L (Homo sapiens, UniProt P10636, P618L); assay: In vitro tau degradation assay in CHOK1 Tau P301L cells (sarkosyl insoluble tau, WES); type: cell-based; conditions: CHO-K1; CHOK1 Tau P301L cells; remaining tau in sarkosyl insoluble pellet; 48 hours with test compound at 1 μM, doxycycline removed for last 24 hours; relative to DMSO doxycycline control; read-out: Tau Protein Degradation effect at 1 μM
T1 construct: expressed in transfected cells
T1 sequence (P10636 1-441 isoform P10636-8 P301L): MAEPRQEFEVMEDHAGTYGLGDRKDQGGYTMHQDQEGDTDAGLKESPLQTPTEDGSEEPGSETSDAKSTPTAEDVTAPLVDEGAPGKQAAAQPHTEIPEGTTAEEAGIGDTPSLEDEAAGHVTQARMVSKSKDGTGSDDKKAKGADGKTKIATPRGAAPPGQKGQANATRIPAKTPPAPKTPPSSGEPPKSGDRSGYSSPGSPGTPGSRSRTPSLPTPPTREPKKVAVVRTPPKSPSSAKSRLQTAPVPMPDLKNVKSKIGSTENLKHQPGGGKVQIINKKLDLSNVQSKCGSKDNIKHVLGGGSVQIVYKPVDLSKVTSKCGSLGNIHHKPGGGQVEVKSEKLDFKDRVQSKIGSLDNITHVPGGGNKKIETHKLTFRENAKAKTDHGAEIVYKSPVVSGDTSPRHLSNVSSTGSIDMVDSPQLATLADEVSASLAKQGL
In short: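 Sarkosyl-insoluble pellet tau, measured by WES capillary immunoassay (Tau1 antibody), was scored against DMSO doxycycline control as ≤50% or >50% remaining. Cells were CHOK1 clone D1 expressing Tau P301L under doxycycline (1 μg/ml), given 1 μM compound for 48 h with doxycycline withdrawn during the last 24 h.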

Question: With CC1c2ccc(-c3ccc4c5cnccc5n(C(F)F)c4c3)cc2CCN1CCCCCOc1ccc2c(c1)C(=O)N(C1CCC(=O)NC1=O)C2=O (stereo not shown) [Compound 603, 5-((5-(6-(5-(difluoromethyl)-5H-pyrido[4,3-b]indol-7-yl)-1-methyl-3,4-dihydroisoquinolin-2(1H)-yl)pentyl)oxy)-2-(2,6-dioxopiperidin-3-yl)isoindoline-1,3-dione] as the molecule, how does the remaining activity at 1 µM read?
Answer: > 50%

same assay, conditions: CHO-K1; remaining tau protein in sarkosyl insoluble pellet; CHOK1 Tau P301L cells treated 48 hours with test compound at 1 μM, doxycycline removed for the last 24 hours; relative to DMSO doxycycline control; read-out: Tau Protein Degradation effect at 1 μM

Question: O=C1CCC(N2Cc3cc(N4CCN(CCC5CCN(c6ncc(-c7ccc8c9cnccc9n(C(F)F)c8c7)cc6C(F)(F)F)CC5)CC4)ccc3C2=O)C(=O)N1 (stereo not shown) [Compound 543, 3-(5-(4-(2-(1-(5-(5-(difluoromethyl)-5H-pyrido[4,3-b]indol-7-yl)-3-(trifluoromethyl)pyridin-2-yl)piperidin-4-yl)ethyl)piperazin-1-yl)-1-oxoisoindolin-2-yl)piperidine-2,6-dione] was tested. Which remaining activity at 1 µM did it give?
Answer: < 50%

Question: With Cc1ccc(-n2ccc3cc(N4CCC(CCN5CCN(c6ccc7c(c6)C(=O)N(C6CCC(=O)NC6=O)C7=O)CC5)CC4)ncc32)nc1 (stereo not shown) [Compound 555, 2-(2,6-dioxopiperidin-3-yl)-5-(4-(2-(1-(1-(5-methylpyridin-2-yl)-1H-pyrrolo[2,3-c]pyridin-5-yl)piperidin-4-yl)ethyl)piperazin-1-yl)isoindoline-1,3-dione] as the molecule, how does the remaining activity at 1 µM read?
Answer: < 50%

Question: For Cc1ccc(-c2cn3ccc(N4CCC(CCN5CCN(c6ccc7c(c6)C(=O)N(C6CCC(=O)NC6=O)C7=O)CC5)CC4)cc3n2)cc1 (stereo not shown) [Compound 558, 2-(2,6-dioxopiperidin-3-yl)-5-(4-(2-(1-(2-(p-tolyl)imidazo[1,2-a]pyridin-7-yl)piperidin-4-yl)ethyl)piperazin-1-yl)isoindoline-1,3-dione], which remaining activity at 1 µM is on record?
Answer: < 50%

Question: Cc1cc2c(cn1)c1ccc(-c3cnc(N4CCC(CCN5CCN(c6ccc7c(c6)C(=O)N(C6CCC(=O)NC6=O)C7=O)CC5)CC4)c(F)c3)cc1n2C (stereo not shown) [Compound 561, 5-(4-(2-(1-(5-(3,5-dimethyl-5H-pyrido[4,3-b]indol-7-yl)-3-fluoropyridin-2-yl)piperidin-4-yl)ethyl)piperazin-1-yl)-2-(2,6-dioxopiperidin-3-yl)isoindoline-1,3-dione] was tested. Which remaining activity at 1 µM did it give?
Answer: < 50%

Question: How did the remaining activity at 1 µM turn out when O=C1CCC(N2C(=O)c3ccc(N4CCN(CC#CC5CCN(c6ccc7c8cnccc8n(C(F)F)c7c6)CC5)CC4)cc3C2=O)C(=O)N1 (stereo not shown) [Compound 565, formate] was run?
Answer: < 50%

Question: O=C1CCC(N2C(=O)c3ccc(C#CCN4CCN(CCC5CCN(c6ncc(-c7ccc8c9cnccc9n(C(F)F)c8c7)cc6F)CC5)CC4)cc3C2=O)C(=O)N1 (stereo not shown) [Compound 566, 5-(3-(4-(2-(1-(5-(5-(difluoromethyl)-5H-pyrido[4,3-b]indol-7-yl)-3-fluoropyridin-2-yl)piperidin-4-yl)ethyl)piperazin-1-yl)prop-1-yn-1-yl)-2-(2,6-dioxopiperidin-3-yl)isoindoline-1,3-dione] was tested. Which remaining activity at 1 µM did it give?
Answer: < 50%

Question: With O=C1CCC(N2C(=O)c3ccc(OCCCN4CCC5(CC4)CN(c4ncc(-c6ccc7c8cnccc8n(C(F)F)c7c6)cc4F)C5)cc3C2=O)C(=O)N1 (stereo not shown) [Compound 568, 5-(3-(2-(5-(5-(difluoromethyl)-5H-pyrido[4,3-b]indol-7-yl)-3-fluoropyridin-2-yl)-2,7-diazaspiro[3.5]nonan-7-yl)propoxy)-2-(2,6-dioxopiperidin-3-yl)isoindoline-1,3-dione] as the molecule, how does the remaining activity at 1 µM read?
Answer: < 50%

Question: How did the remaining activity at 1 µM turn out when O=C1CCC(N2C(=O)c3ccc(N4CCN(CC(F)(F)C5CCN(c6ccc(-c7ccc8c(c7)[nH]c7ccncc78)cn6)CC5)CC4)cc3C2=O)C(=O)N1 (stereo not shown) [Compound 569, 5-(4-(2-(1-(5-(5H-pyrido[4,3-b]indol-7-yl)pyridin-2-yl)piperidin-4-yl)-2,2-difluoroethyl)piperazin-1-yl)-2-(2,6-dioxopiperidin-3-yl)isoindoline-1,3-dione] was run?
Answer: < 50%

Question: With O=C1CCC(N2C(=O)c3ccc(N4CCN(CC#CC5CCN(c6ncc(-c7ccc8c9cnccc9n(C(F)F)c8c7)cc6F)CC5)CC4)cc3C2=O)C(=O)N1 (stereo not shown) [Compound 574, 5-(4-(3-(1-(5-(5-(difluoromethyl)-5H-pyrido[4,3-b]indol-7-yl)-3-fluoropyridin-2-yl)piperidin-4-yl)prop-2-yn-1-yl)piperazin-1-yl)-2-(2,6-dioxopiperidin-3-yl)isoindoline-1,3-dione] as the molecule, how does the remaining activity at 1 µM read?
Answer: < 50%

Question: For O=C1CCC(N2C(=O)c3ccc(N4CCN(CCCN5CCOC6(CCN(c7ccc8c9cnccc9n(C(F)F)c8c7)CC6)C5)CC4)cc3C2=O)C(=O)N1 (stereo not shown) [Compound 575, 5-(4-(3-(9-(5-(difluoromethyl)-5H-pyrido[4,3-b]indol-7-yl)-1-oxa-4,9-diazaspiro[5.5]undecan-4-yl)propyl)piperazin-1-yl)-2-(2,6-dioxopiperidin-3-yl)isoindoline-1,3-dione], which remaining activity at 1 µM is on record?
Answer: < 50%

Question: Which remaining activity at 1 µM does the source give for O=C1CCC(N2C(=O)c3ccc(OCCC4CCN(C[C@H]5C[C@H](Oc6cc(Nc7ccc8ncccc8n7)ccn6)C5)CC4)cc3C2=O)C(=O)N1 (stereo partly shown) [Compound 577, 5-(2-(1-(((1r,3r)-3-((4-((1,5-napthyridin-2-yl)amino)pyridin-2-yl)oxy)cyclobutyl)methyl)piperidin-4-yl)ethoxy)-2-(2,6-dioxopiperidin-3-yl)isoindoline-1,3-dione] here?
Answer: > 50%

Question: How did the remaining activity at 1 µM turn out when CC(C)N(CC1CCN(c2ncc(-c3ccc4c5cnccc5n(C(F)F)c4c3)cc2F)CC1)[C@H]1C[C@H](Oc2ccc3c(c2)C(=O)N(C2CCC(=O)NC2=O)C3=O)C1 (stereo partly shown) [Compound 581, 5-((1r,3r)-3-(((1-(5-(5-(difluoromethyl)-5H-pyrido[4,3-b]indol-7-yl)-3-fluoropyridin-2-yl)piperidin-4-yl)methyl)(isopropyl)amino)cyclobutoxy)-2-(2,6-dioxopiperidin-3-yl)isoindoline-1,3-dione] was run?
Answer: < 50%

Question: For O=C1CCC(N2C(=O)c3ccc(N4CCN(CCC5CCN(c6cc(Nc7ccc8ncccc8n7)ccn6)CC5)CC4)cc3C2=O)C(=O)N1 (stereo not shown) [Compound 583, 2-(2,6-dioxo-3-piperidyl)-5-[4-[2-[1-[4-(1,5-naphthyridin-2-ylamino)-2-pyridyl]-4-piperidyl]ethyl]piperazin-1-yl]isoindoline-1,3-dione], which remaining activity at 1 µM is on record?
Answer: < 50%

Question: Cc1cc(Nc2ccc3nc(N4CCC(CCN5CCN(c6ccc7c(c6)C(=O)N(C6CCC(=O)NC6=O)C7=O)CC5)CC4)ccc3n2)ccn1 (stereo not shown) [Compound 584, 2-(2,6-dioxopiperidin-3-yl)-5-(4-(2-(1-(6-((2-methylpyridin-4-yl)amino)-1,5-naphthyridin-2-yl)piperidin-4-yl)ethyl)piperazin-1-yl)isoindoline-1,3-dione] was tested. Which remaining activity at 1 µM did it give?
Answer: < 50%

Question: Which remaining activity at 1 µM does the source give for O=C1CCC(N2C(=O)c3ccc(C#CCN4CCN(CCC5CCN(c6ccc7c8cnccc8n(C(F)F)c7c6)CC5)CC4)cc3C2=O)C(=O)N1 (stereo not shown) [Compound 586, 5-(3-(4-(2-(1-(5-(difluoromethyl)-5H-pyrido[4,3-b]indol-7-yl)piperidin-4-yl)ethyl)piperazin-1-yl)prop-1-yn-1-yl)-2-(2,6-dioxopiperidin-3-yl)isoindoline-1,3-dione] here?
Answer: < 50%

Question: With O=C1CCC(N2C(=O)c3ccc(N4CCN(C(=O)CC5CCN(c6ncc(-c7ccc8c9cnccc9n(C(F)F)c8c7)cc6F)CC5)CC4)cc3C2=O)C(=O)N1 (stereo not shown) [Compound 592, 5-(4-(2-(1-(5-(5-(difluoromethyl)-5H-pyrido[4,3-b]indol-7-yl)-3-fluoropyridin-2-yl)piperidin-4-yl)acetyl)piperazin-1-yl)-2-(2,6-dioxopiperidin-3-yl)isoindoline-1,3-dione] as the molecule, how does the remaining activity at 1 µM read?
Answer: < 50%

Question: O=C1CCC(N2C(=O)c3ccc(N4CCN(CCC5CCN(C6CCN(c7ccc8c9cnccc9n(C(F)F)c8c7)CC6)CC5)CC4)cc3C2=O)C(=O)N1 (stereo not shown) [Compound 593] was tested. Which remaining activity at 1 µM did it give?
Answer: < 50%

Question: For O=C1CCC(N2C(=O)c3cccc(N4CCN(CCC5CCN(c6ncc(-c7ccc8c9cnccc9n(C(F)F)c8c7)cc6F)CC5)CC4)c3C2=O)C(=O)N1 (stereo not shown) [Compound 594, 4-(4-(2-(1-(5-(5-(difluoromethyl)-5H-pyrido[4,3-b]indol-7-yl)-3-fluoropyridin-2-yl)piperidin-4-yl)ethyl)piperazin-1-yl)-2-(2,6-dioxopiperidin-3-yl)isoindoline-1,3-dione], which remaining activity at 1 µM is on record?
Answer: < 50%

Question: O=C1CCC(N2C(=O)c3ccc(N4CCN(CCC5CCN(c6ncc(-c7ccc8c9cc(F)cnc9n(C(F)F)c8c7)cc6F)CC5)CC4)cc3C2=O)C(=O)N1 (stereo not shown) [Compound 597, 5-(4-(2-(1-(5-(9-(difluoromethyl)-3-fluoro-9H-pyrido[2,3-b]indol-7-yl)-3-fluoropyridin-2-yl)piperidin-4-yl)ethyl)piperazin-1-yl)-2-(2,6-dioxopiperidin-3-yl)isoindoline-1,3-dione] was tested. Which remaining activity at 1 µM did it give?
Answer: < 50%

Question: With O=C1CCC(N2C(=O)c3ccc(N4CCN(CCC5CCN(c6cc7ccn(-c8cc9cc(F)ccc9cn8)c7cn6)CC5)CC4)cc3C2=O)C(=O)N1 (stereo not shown) [Compound 598, 2-(2,6-dioxopiperidin-3-yl)-5-(4-(2-(1-(1-(6-fluoroisoquinolin-3-yl)-1H-pyrrolo[2,3-c]pyridin-5-yl)piperidin-4-yl)ethyl)piperazin-1-yl)isoindoline-1,3-dione] as the molecule, how does the remaining activity at 1 µM read?
Answer: < 50%

Question: For O=C1CCC(N2C(=O)c3ccc(N4CCN(CCC5CC6(C5)CN(c5ccc(-c7ccc8c(c7)[nH]c7ccncc78)cn5)C6)CC4)cc3C2=O)C(=O)N1 (stereo not shown) [Compound 599, 5-(4-(2-(2-(5-(5H-pyrido[4,3-b]indol-7-yl)pyridin-2-yl)-2-azaspiro[3.3]heptan-6-yl)ethyl)piperazin-1-yl)-2-(2,6-dioxopiperidin-3-yl)isoindoline-1,3-dione], which remaining activity at 1 µM is on record?
Answer: < 50%
